This is an account of results in patent US9624167B2, “N-(4-hydroxy-4-methyl-cyclohexyl)-4-phenyl-benzenesulfonamides and N-(4-hydroxy-4-methyl-cyclohexyl)-4-(2-pyridyl)benzenesulfonamides and their therapeutic use” (PIMCO 2664 LIMITED, priority 2013, dated 2017).

Like-named read-outs stand apart in the source and are kept apart here.

Data set [1] has as its system TK6 human lymphoblastoid cell line. Description: GreenScreen HC cytotoxicity (propidium iodide uptake). The data set is classed as cell-based. The protocol:
GreenScreen HC is a mammalian cell-based assay for measuring the genotoxicity and cytotoxicity of chemical compounds and mixtures.
Cytotoxicity is measured in the GreenScreen assay alongside genotoxicity and the results of the cytotoxicity assessment are used to normalise the genotoxicity measurements as described above.
In the GreenScreen HC assay, cell viability is assessed using a propidium iodide uptake assay. Propidium iodide is an intercalating agent and a fluorescent molecule that can be used to stain cells. It is commonly used to quantitatively assess DNA content to evaluate cell viability or DNA content in cell cycle analysis and can be used to differentiate necrotic, apoptotic and normal cells (see, e.g., Dengler et al., 1995, Anticancer Drugs, Vol. 6, No. 4, pp. 522-532). Exposure to a cytotoxic compound increases the uptake of propidium iodide, which is monitored by optical absorbance and is proportional to […]. Cytotoxic compounds are those that show an observed decrease in relative population survival below a significance threshold set at 90% compared to vehicle-treated control, at one or more test concentrations.
A dilution series of each test compound is generated in parallel in a 96-well, black microplate with an optically clear base. A standard genotoxic compound (methyl methanesulfonate, MMS) is added as an intra-plate quality control check. The plates are analysed at 24 hour and 48 hour time points using a microplate reader, which provides measurements of light absorbance and fluorescence for cells and solutions in the microplates wells.
In addition to measurements of cell viability and genotoxicity described above, the GreenScreen assay incorporates an assessment of the effects of metabolic activation in the assay, the “GreenScreen HC S9 assay”. To accomplish this, the cells are incubated both in the presence of and absence of the post-mitochondrial supernatant liver extract (known as “S9”). S9 is routinely used in genetic toxicology to supplement the test cells with mammalian phase I metabolism. To assess metabolic activation, compounds are incubated with the TK6 strain in the presence of 1% v/v S9 fraction mix for 3 hours with a subsequent 45 hour recovery time. After the recovery period, the GFP fluorescence signal and cell viability (assessed by propidium iodide uptake) are measured using a flow cytometer. Cyclophosphamide, a commonly used control in genotoxicity studies utilising metabolic activation, is used as the positive control in the assay. In the GreenScreen HC S9 assay, genotoxicity is evaluated by induction in GFP expression quantified using the mean sample fluorescence and cytotoxicity using the propidium iodide uptake assay described above. The statistically defined threshold for a positive genotoxicity result is 1.3, i.e. 30% induction over and above the baseline for the vehicle-treated control and the result is reported as positive or negative. Cytotoxic compounds are those that show an observed decrease in relative population survival below a significance threshold set at 90% compared to vehicle-treated control, at one or more test concentrations.
Stably transfected reporter cell lines were derived from the p53-competent human lymphoblastoid TK6 cell line. The reporter cell line carries an episomally replicating plasmid bearing the upstream promoter region and other regulatory sequences of the human GADD45a gene linked to a human optimised Green Fluorescent Protein (GFP) gene. The control cell line carries an identical plasmid except for the removal of 4 base pairs at the start of the EGFP gene, such that GFP is not produced. Both plasmids also carry a gene conferring resistance to hygromycin B to the cell line, allowing continued selection for plasmid presence (200 μg/mL hygromycin B; Invitrogen Corporation, Carlsbad, Calif.). […]

Data set [2] relates to IL-6 release from LPS-stimulated Thp1 macrophages. Description: Thp1 Macrophage IL-6 Release Assay. The format is cell-based. The following applies: Homo sapiens. From the text:
Anti-inflammatory effects were further characterised by assessing the production of interleukin-6 (IL-6) by human Thp-1 derived macrophages stimulated with a pro-inflammatory stimulus bacterial lipopolysaccharide (LPS). LPS acts with a cell-surface receptor, Toll-like receptor-4 to activate the NFκB and IRF signalling pathways to produce IL-6. The reduction of IL—in this stimulated assay is indicative of anti-inflammatory effects with utility in the treatment of conditions in which IL-6 production is aberrant.
In vitro potency of test compounds in human cells was determined by incubation with Thp1 macrophages and subsequent stimulation with an inflammatory stimulus (bacterial lipopolysaccharide (LPS)) followed by measurement of cellular interleukin-6 (IL-6) release.
Thp1 cells were plated at a concentration of 1×10^5 cells/well or 1.7×10^5 cells/well in 500 μL or 150 μL RPMI complete media containing 1% penicillin-streptomycin and 10% heat inactivated foetal bovine serum in 24-well plates or 96-well plates, respectively and allowed to adhere overnight. The following day, the cells were stimulated with phorbol myristic acid (PMA) at a final concentration of 100 nM (24-well plates) or 200 nM (96-well plates) to induce differentiation and maintained for up to 8 days with a medium change at 5 days if cells were cultured to 8 days. Test compounds were prepared as […] solutions in DMSO and then serially diluted in DMSO prior to dilution in culture medium.
The diluted compounds were added to the cultures 1 hour prior to stimulation with 100 ng/mL LPS. Following a 16 or 18 hour incubation at 37° C./5% CO2, the cell culture medium was collected and assayed for human IL-6 levels using the human IL-6 duo-set ELISA kit (R&D Systems). The average results for each test compound (n=3) were expressed as a percent (%) of the average control value. The average values across the concentrations tested were then plotted and the IC50 for the inhibition of IL-6 was calculated by fitting the data to a 4-parameter IC50 equation using software from Grafit version 6.0.12 (Erithacus Software Ltd., by Dr Robin Leatherbarrow) or GraphPad Prism version 5.04 for Windows (GraphPad Software, La Jolla, Calif., USA, www.qraphpad.com). Each experiment was repeated twice and the data are presented as the mean IC50 from both experiments.

Setting [3] is: lowest effective concentration for loss of cell viability.
The mark [4] stands for this setting: THP-1, 1.7 × 10^5 cells/well, 96-well plates, 3 days, 9 point curve, IL6 measured 18 hours after LPS, read-out: IC50 (2).

As for `Cc1cc(S(=O)(=O)NC2CCC(C)(O)CC2)ccc1-c1ccc(F)cc1F` (single isomer, unassigned) [REF001, reference compound], the “Cytotoxicity, LEC, 48 h, −S9” value in data set [1] (absence of S9 fraction) stood at 0.039 µM. Moreover, in data set [1] (presence of S9 fraction), the “Cytotoxicity, LEC, 48 h, +S9” value was determined as 0.63 µM. Further, in data set [1] (setting [3]), the “Cytotoxicity, LEC, 24 h” value stood at 0.039 µM.
As to `Cc1cc(S(=O)(=O)N[C@H]2CC[C@H](O)CC2)ccc1-c1ccc(F)cc1F` [ABD735], the “Cytotoxicity, LEC, 48 h, −S9” value in data set [1] (absence of S9 fraction) came out at 0.31 µM. Also, the “Cytotoxicity, LEC, 48 h, +S9” value in data set [1] (presence of S9 fraction) worked out at 5 µM. Besides, in data set [1] (setting [3]), the “Cytotoxicity, LEC, 24 h” value was 0.31 µM.
As to `O=S(=O)(N[C@H]1CC[C@H](O)CC1)c1ccc(-c2ncc(Cl)cc2Cl)cc1` [ABD836, reference compound], the “Cytotoxicity, LEC, 48 h, −S9” value in data set [1] (absence of S9 fraction) worked out at 0.01 µM. Moreover, in data set [1] (presence of S9 fraction), the “Cytotoxicity, LEC, 48 h, +S9” value was 40 µM. In addition, the “Cytotoxicity, LEC, 24 h” value in data set [1] (setting [3]) turned out to be 0.04 µM.
Regarding `C[C@]1(O)CC[C@@H](NS(=O)(=O)c2ccc(-c3ccc(F)cc3F)cc2)CC1` [ABD899, reference compound], the “Cytotoxicity, LEC, 24 h” value in data set [1] (lab scale batch tested in the range 1.3 mM to 0.3 pM) was below 0.001 µM; in data set [1] (mid scale batch tested in the range 164 μM to 0.003 μM) it was 0.64 µM. Further, the “Cytotoxicity, LEC, 48 h, +S9” value was found to be 0.32 µM in data set [1] (+S9, lab scale batch, 1.3 mM to 0.3 pM) and 81.9 µM in data set [1] (+S9, mid scale batch, 164 μM to 0.003 μM). In addition, the “Cytotoxicity, LEC, 48 h, −S9” value in data set [1] (−S9, lab scale batch, 1.3 mM to 0.3 pM) is below 0.001 µM; in data set [1] (−S9, mid scale batch, 164 μM to 0.003 μM), 0.08 µM.
In the case of `C[C@]1(O)CC[C@H](NS(=O)(=O)c2ccc(-c3ccc(F)cc3F)cc2)CC1` [ABD900, reference compound], in data set [1] (absence of S9 fraction), the “Cytotoxicity, LEC, 48 h, −S9” value stood at 0.07 µM. In addition, the “Cytotoxicity, LEC, 48 h, +S9” value in data set [1] (presence of S9 fraction) was found to be 74.1 µM. Besides, the “Cytotoxicity, LEC, 24 h” value in data set [1] (setting [3]) amounted to 0.29 µM.
On to `C[C@]1(O)CC[C@H](NS(=O)(=O)c2ccc(-c3ccc(Cl)cc3C#N)cc2)CC1` [HMC-C-01-A, 4′-Chloro-2′-cyano-N-((1r,4r)-4-hydroxy-4-methylcyclohexyl)biphenyl-4-sulfonamide], for which the IC50 (in general, the point on the concentration scale where inhibition reaches its midpoint) came to 0.04 µM in data set [2] (THP-1, 1 × 10^5 cells/well, 24-well plates, 8 days, 6 point curve, IL6 measured 16 hours after LPS, read-out: IC50 (1)) and 0.18 µM in data set [2] (setting [4]). For the same molecule, the “Cytotoxicity, LEC, 48 h, −S9” value in data set [1] (absence of S9 fraction) worked out at 0.12 µM. The “Cytotoxicity, LEC, 48 h, +S9” value in data set [1] (presence of S9 fraction) was found to be 60 µM. For the same molecule, in data set [1] (setting [3]), the “Cytotoxicity, LEC, 24 h” value was found to be 0.47 µM.
On to `C[C@]1(O)CC[C@@H](NS(=O)(=O)c2ccc(-c3ccc(Cl)cc3C#N)cc2)CC1` [HMC-C-01-B, 4′-Chloro-2′-cyano-N-((1s,4s)-4-hydroxy-4-methylcyclohexyl)-[1,1′-biphenyl]-4-sulfonamide], for which the IC50 in data set [2] (setting [4]) was found to be 0.06 µM. For the same molecule, the “Cytotoxicity, LEC, 48 h, −S9” value in data set [1] (absence of S9 fraction) worked out at 0.005 µM. Further, the “Cytotoxicity, LEC, 48 h, +S9” value in data set [1] (presence of S9 fraction) worked out at 4.82 µM. Also, in data set [1] (setting [3]), the “Cytotoxicity, LEC, 24 h” value is 0.08 µM.
`C[C@]1(O)CC[C@@H](NS(=O)(=O)c2ccc(-c3ccc(F)cc3C(F)(F)F)cc2)CC1` [HMC-C-02-B, 4′-Fluoro-N-((1s,4s)-4-hydroxy-4-methylcyclohexyl)-2′-(trifluoromethyl)-[1,1′-biphenyl]-4-sulfonamide]: the IC50 in data set [2] (setting [4]) is 0.29 µM.
Still for that read-out and setting: the figure for `C[C@]1(O)CC[C@H](NS(=O)(=O)c2ccc(-c3ccc(F)cc3F)c(F)c2)CC1` [HMC-C-04-A, 2,2′,4′-Trifluoro-N-((1r,4r)-4-hydroxy-4-methylcyclohexyl)-[1,1′-biphenyl]-4-sulfonamide] is 0.13 µM.
As to `C[C@]1(O)CC[C@@H](NS(=O)(=O)c2ccc(-c3ccc(F)cc3F)c(F)c2)CC1` [HMC-C-04-B, 2,2′,4′-Trifluoro-N-((1s,4s)-4-hydroxy-4-methylcyclohexyl)-[1,1′-biphenyl]-4-sulfonamide], in data set [2] (setting [4]), the IC50 is 0.03 µM.
Regarding `C[C@]1(O)CC[C@@H](NS(=O)(=O)c2ccc(-c3ncc(Cl)cc3Cl)cc2)CC1` [HMC-N-03-B, 4-(3,5-Dichloropyridin-2-yl)-N-((1s,4s)-4-hydroxy-4-methylcyclohexyl)benzenesulfonamide], the IC50 in data set [2] (setting [4]) came out at 0.02 µM.
As to `C[C@]1(O)CC[C@H](NS(=O)(=O)c2ccc(-c3ncc(Cl)cc3Cl)c(F)c2)CC1` [HMC-N-04-A, 4-(3,5-Dichloropyridin-2-yl)-3-fluoro-N-((1r,4r)-4-hydroxy-4-methylcyclohexyl)benzenesulfonamide], the “Cytotoxicity, LEC, 48 h, −S9” value in data set [1] (absence of S9 fraction) came to 0.12 µM. Besides, the “Cytotoxicity, LEC, 48 h, +S9” value in data set [1] (presence of S9 fraction) was found to be 30 µM. In addition, in data set [1] (setting [3]), the “Cytotoxicity, LEC, 24 h” value was found to be 0.47 µM.
